US8633219B2, “Combination therapy” (Japan Tobacco Inc., priority 2004, dated 2014)

Columns and labels:
[1] = test system: HIV-1IIIB; assay: Drug combination anti-HIV-1 cytoprotection assay (MacSynergy II) in CEM-SS cells infected with HIV-1IIIB; type: cell-based; details: in combination with Compound A; for Antagonism Volume, Result 1 / Synergy Volume, Result 1 / Antagonism Volume, Result 2 / Synergy Volume, Result 2 / Antagonism Volume, Result 3 / Synergy Volume, Result 3: 95% confidence interval; for Antagonism Volume, Result 1 / Synergy Volume, Result 1: assay 1; for Antagonism Volume, Result 2 / Synergy Volume, Result 2: assay 2; for Antagonism Volume, Result 3 / Synergy Volume, Result 3: assay 3; for Mean Antagonism Volume / Mean Synergy Volume: n = 3
Experimental: This work was performed using the Prichard and Shipman MacSynergy II three-dimensional model for statistical evaluation of combination anti-HIV assays. Using a standard microtiter plate format, each combination assay was performed in CEM-SS T-lymphocytic cells acutely infected with the a laboratory-adapted strain, HIV-1IIIB, and viral growth/inhibition was evaluated by measuring by monitoring virus-induced cytopathic effects (CPE) at the experimental endpoint.
AZT was dissolved in sterile dH2O and the remainder of the control compounds were dissolved in DMSO for analysis in the combination assays. […] CEM-SS cells were passaged in T-75 flasks prior to use in the antiviral assay. On the day preceding the assay, the cells were split 1:2 to assure they were in an exponential growth phase at the time of infection. Total cell and viability quantification was performed using a hemacytometer and trypan blue exclusion.
The virus used for these tests was the lymphocytropic virus strain HIV-1IIIB. This virus was obtained from the NIH AIDS Research and Reference Reagent Program and was grown in CEM-SS cells for the production of stock virus pools. For each assay, a pre-titered aliquot of virus was removed from the freezer (−80° C.) and allowed to thaw slowly to room temperature in a biological safety cabinet. The virus was resuspended and diluted into tissue culture medium such that the amount of virus added to each well in a volume of 50 μl was the amount determined to give between 85 to 95% cell killing at 6 days post-infection.
(§1) The format of the test plate was standardized as follows. Each plate contains cell control wells (cells only), virus control wells (cells plus virus), drug cytotoxicity wells (cells plus drug only), drug colorimetric control wells (drug only), as well as experimental wells (drug plus cells plus virus). The final volume in each well was 200 μl.
At assay termination, the assay plates were stained with the soluble tetrazolium-based dye MTS (CellTiter96 Reagent, Promega) to determine cell viability and quantify compound toxicity. […] At termination of the assay, 20 μl of MTS reagent was added per well. The microtiter plates were then incubated 4-6 hrs at 37° C. for the HIV cytoprotection assay; the incubation intervals were chosen based on empirically determined times for optimal dye reduction. Adhesive plate sealers were used in place of the lids, the sealed plate was inverted several times to mix the soluble formazan product and the plate was read spectrophotometrically at 490/650 nm with a Molecular Devices Vmax plate reader.
Combination antiviral assays were performed with CEM-SS cells utilizing the HIV-1IIIB strain of virus as described above.
The expected additive antiviral protection was subtracted from the experimentally determined antiviral activity at each combination concentration resulting in a positive value (synergy), a negative value (antagonism), or zero (additivity). The results of the combination assays are presented three dimensionally at each combination concentration, yielding a surface of activity extending above (synergy) or below (antagonism) the plane of additivity. The volume of the surface is calculated and expressed as a synergy volume (μM^2%) calculated at the 95% confidence interval.
Slightly synergistic activity and highly synergistic activity have been defined as yielding synergy volumes of 50-100 μM^2% and >100 μM^2%, respectively.

[2] = test system: CEM-SS cells; assay: Cellular cytotoxicity by MTS staining in the combination assay; type: cell-based; details: combinations with other anti-HIV agents; Compound A 4 nM high-test concentration
Experimental: as §1, with “μl. Samples were evaluated with triplicate measurements using a checkerboard dilution scheme; […]; antiviral efficacy and cellular cytotoxicity were monitored by MTS staining at the experimental endpoint.” for “μl.”
At assay termination, the assay plates were stained with the soluble tetrazolium-based dye MTS (CellTiter96 Reagent, Promega) to determine cell viability and quantify compound toxicity. MTS is metabolized by the mitochondrial enzymes of metabolically active cells to yield a soluble formazan product, allowing the rapid quantitative analysis of cell viability and compound cytotoxicity. […] The microtiter plates were then incubated 4-6 hrs at 37° C. for the HIV cytoprotection assay; the incubation intervals were chosen based on empirically determined times for optimal dye reduction. Adhesive plate sealers were used in place of the lids, the sealed plate was inverted several times to mix the soluble formazan product and the plate was read spectrophotometrically at 490/650 nm with a Molecular Devices Vmax plate reader.

Compound	Antagonism Volume, Result 1 [1] [μM^2%]	Synergy Volume, Result 1 [1] [μM^2%]	Antagonism Volume, Result 2 [1] [μM^2%]	Synergy Volume, Result 2 [1] [μM^2%]	Antagonism Volume, Result 3 [1] [μM^2%]	Synergy Volume, Result 3 [1] [μM^2%]	Mean Antagonism Volume [1] [μM^2%]	Mean Synergy Volume [1] [μM^2%]	synergistic cytotoxicity [2]
Cc1cn([C@H]2C[C@H](N=[N+]=[N-])[C@@H](CO)O2)c(=O)[nH]c1=O [AZT, zidovudine]	−21	46	−44	19	−23	57	−29.3	40.7	
COc1cc2c(cc1Cc1cccc(Cl)c1F)c(=O)c(C(=O)O)cn2[C@H](CO)C(C)C [Compound A, (S)-6-(3-Chloro-2-fluorobenzyl)-1-(1-hydroxymethyl-2-methylpropyl)-7-methoxy-4-oxo-1,4-dihydroquinoline-3-carboxylic acid]									no evidence of synergistic cytotoxicity
O=C1Nc2ccc(Cl)cc2[C@@](C#CC2CC2)(C(F)(F)F)O1 [EFV, efavirenz]	−9	26	0	54	−7	26	−5.3	35.3	
CC(C)(C)NC(=O)[C@@H]1CN(Cc2cccnc2)CCN1C[C@@H](O)C[C@@H](Cc1ccccc1)C(=O)N[C@H]1c2ccccc2C[C@H]1O [IDV, indinavir]	−7	57	−23	13	−26	10	−18.7	26.7	
Cc1c(O)cccc1C(=O)N[C@@H](CSc1ccccc1)[C@H](O)CN1C[C@H]2CCCC[C@H]2C[C@H]1C(=O)NC(C)(C)C [NFV, nelfinavir]	−3	44	−3	38	−46	20	−17.3	34.	
C[C@H](Cn1cnc2c(N)ncnc21)OCP(=O)(O)O [PMPA, tenofovir]	−23	29	−4	43	−60	13	−29.0	28.3	
